One test concerns the target T1, P-Selectin (Homo sapiens, UniProt P16109).
T1 construct: endogenous in cells
T1 sequence (P16109 42-830): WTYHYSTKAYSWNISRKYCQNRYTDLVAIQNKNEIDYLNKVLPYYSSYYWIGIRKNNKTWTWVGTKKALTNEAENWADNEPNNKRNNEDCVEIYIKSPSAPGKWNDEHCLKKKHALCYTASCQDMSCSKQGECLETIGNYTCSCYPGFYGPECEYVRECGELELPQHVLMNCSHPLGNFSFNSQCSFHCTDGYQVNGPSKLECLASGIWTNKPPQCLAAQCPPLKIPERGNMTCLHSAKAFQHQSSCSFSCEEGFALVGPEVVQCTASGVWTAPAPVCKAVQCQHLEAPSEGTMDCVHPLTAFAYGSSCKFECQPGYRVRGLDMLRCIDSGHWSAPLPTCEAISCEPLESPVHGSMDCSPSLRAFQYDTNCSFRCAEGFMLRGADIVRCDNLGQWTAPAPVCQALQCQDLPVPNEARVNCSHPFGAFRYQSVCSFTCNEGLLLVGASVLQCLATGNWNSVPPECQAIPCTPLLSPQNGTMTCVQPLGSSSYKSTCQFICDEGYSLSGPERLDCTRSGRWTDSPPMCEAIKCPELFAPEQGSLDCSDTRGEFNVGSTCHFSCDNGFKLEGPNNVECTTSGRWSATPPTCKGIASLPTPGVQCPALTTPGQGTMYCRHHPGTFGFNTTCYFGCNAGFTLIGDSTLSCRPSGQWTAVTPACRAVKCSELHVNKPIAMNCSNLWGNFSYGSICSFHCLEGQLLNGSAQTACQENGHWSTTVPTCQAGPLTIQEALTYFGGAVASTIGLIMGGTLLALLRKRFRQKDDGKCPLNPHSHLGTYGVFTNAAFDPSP
Description: Oligosaccharide/polysaccharide inhibition of neutrophil adhesion to thrombin activated platelets. The test is classed as cell-based. As to conditions: for IC50: read-out: AMOUNT REQUIRED FOR 50% INHIBITION (converted). As to the method: Briefly, platelets and neutrophils were isolated by the methods described above. Platelets were activated with thrombin and then incubated with dilutions of various oligosaccharides. Neutrophils were added, and the effect of the saccharides on the adhesion of neutrophils to activated platelets was determined.
1. Platelets were isolated as described above and were activated (2×10^8 /ml) by incubation for 20 min at room temperature with thrombin at a final concentration of 0.25 U/ml.
2. Neutrophils were isolated by layering heparinized blood over Mono-Poly Resolving Medium (Ficoll-Hypaque-Flow Laboratories), followed by centrifugation for 25 min at 2000 rpm and then, a further 25 min at 2500 rpm as described above.
3. For the assay, 20 μl of the platelet suspension (2×10^8 /ml) was placed in a microcentrifuge tube. An equal volume of the oligosaccharide preparations at concentrations from 200 μg/ml to 0.3 μg/ml, or of glycolipid-liposome preparations (prepared as described above), at concentrations from 2 μg/ml to 0.25 μg/ml, was added and the tubes were allowed to stand at room temperature for 20 min. Twenty μl of the neutrophil preparation (2×10^6 /ml) was then added and the tubes were allowed to stand for a further 20 min at room temperature.
4. Adhesion of activated platelets to the neutrophils was assessed microscopically. One hundred neutrophils were evaluated. They were scored as positive if 2 or more platelets were attached and negative if less than 2 platelets were bound. The percent of cells with 2 or more bound platelets was calculated.
Briefly, platelets and neutrophils were isolated by the methods described above. Platelets were activated with thrombin and then incubated with dilutions of various oligosaccharides. Neutrophils were added and the effect of the saccharides on the adhesion of neutrophils to activated platelets was determined.
Platelets were isolated as described above and were activated (2×10^8 /ml) by incubation for 20 min at room temperature with thrombin at a final concentration of 0.25 U/ml.
Neutrophils were isolated by layering heparinized blood over Mono-Poly Resolving Medium (Ficoll-Hypaque, Flow Laboratories), followed by centrifugation for 25 min at […] and then, a further 25 min at 2500 rpm as described above.
For the assay, 20 μl of the platelet suspension (2×10^8 /ml) was placed in an Eppendorf centrifuge tube. An equal volume of the oligosaccharide preparations at concentrations from 500 μg/ml to 2.0 μg/ml was added and the tubes were allowed to stand at room temperature for 20 min. Twenty […] of the neutrophil preparation (2×10^6 /ml) was then added and the tubes were allowed to stand for a further 20 min at room temperature.
Adhesion of activated platelets to the neutrophils was assessed microscopically. One hundred neutrophils were evaluated. They were scored as positive if 2 or more platelets were attached and negative if less than 2 platelets were bound. The percent of cells with 2 or more bound platelets was calculated.

Test [1] deals with CVF-induced acute lung injury. Description: Cobra venom factor (CVF)-induced acute lung injury in the rat. Type of test: in vivo. As to conditions: in words; prior to CVF, 30 minutes. As to the method:
Groups of rats were pretreated with either vehicle, SLN-OH (0.6 mg/Kg), or with SLX-OH (0.6 mg/Kg) 5 minutes prior to administration of either CVF or PBS. Each bar represents the mean of 6 animals and vertical lines represent the standard error of the mean.
Groups of rats were pretreated with either vehicle or Z at the indicated doses 5 minutes prior to administration of CVF or PBS. Each point represents the mean of 6 animals and vertical lines represent the standard error of the mean.
The intravenous injection of CVF produces intravascular complement activation which results in lung injury, defined as an increase in neutrophil accumulation within the lung, an increase in pulmonary vascular permeability and in lung hemorrhage. It is likely that intravascular complement activation results in the generation of a wide range of inflammatory mediators. Of particular relevance to the studies described here is generation of the split fifth complement component, C5a, which can stimulate the release of histamine from circulating basophils and tissue mast cells. […] The expression of selectins, including P-selectin, is a necessary first step in the process of leukocyte adherence to vascular endothelium.
Animals were dosed with different oligosaccharide preparations or phosphate buffered saline (PBS) five minutes before administration of cobra venom factor (20 units/Kg, i.v.). Included in this material was an aliquot of ^125 I-bovine serum albumin (0.5 μCi) and ^51 Cr labelled autologous red blood cells (0.5 μCi) for measuring plasma extravasation and hemorrhage respectively. Thirty minutes after administration of the cobra venom factor the animals were anesthetized with ketamine hydrochloride (10 mg/Kg) and exsanguinated via the posterior vena cava. The lung vasculature was then perfused through the right cardiac ventricle with 10 mL of PBS. The lungs were removed and the amount of radioactivity remaining within the tissue assessed with a gamma scintillation counter. Increased pulmonary vascular permeability was measured as the ratio of ^125 I in lung tissue compared with the amount present in 1 mL of venous blood obtained at the time of death. Lung hemorrhage was measured as the ratio of ^51 Cr in lung tissue compared with the amount present in 1 mL of venous blood obtained at the time of death. Neutrophil accumulation in lungs was determined by measuring the myeloperoxidase activity of lungs homogenized in PBS. Myeloperoxidase activity in lung supernatants was assayed by measuring the change in absorbance at 460 nm resulting from decomposition of H2 O2 in the presence of o-dianisidine

For test [2], the system named is histamine induced leukocyte rolling in rat mesenteric venules. Description: Histamine induced leukocyte rolling and adherence in rat mesenteric venules (intravital microscopy). The test is classed as in vivo, rat (male Sprague-Dawley). As for the experimental part: Surgical procedure. Sixty-four male Sprague-Dawley rats (200-250 g) were maintained on a purified laboratory diet and fasted for 24 hours prior to the experiment. The animals were initially anesthetized with pentobarbital (65 mg/kg body weight), then a tracheotomy was performed to facilitate breathing during the experiment. The right carotid artery was cannulated and systemic arterial pressure was measured with a Statham (Oxnard, Calif.) P23A pressure transducer connected to the carotid artery cannula. Systemic blood pressure and heart rate were continuously recorded with a Grass physiologic recorder (Grass Instruments, Massachusetts). The left jugular vein was also cannulated for drug administration and blood sample collection. After a midline abdominal incision a segment of the mid-jejunum was exteriorized. All exposed tissue was moistened with saline-soaked gauze to minimize evaporation and dehydration.
Intravital microscopy. Rats were placed in a supine position on an adjustable plexiglass microscope stage and the mesentery was draped over an optically clear coverslip that allowed for observation of a 2 cm^2 segment of tissue. The temperature of the pedestal was maintained at 37° C. with a constant temperature circulator (Fisher Scientific, model 80). A small rubber gasket (area=3.14 cm^2) was placed on the mesentery and the outside area of contact between the gasket and mesentery was sealed (to prevent leakage of superfusate from the ring) with a mixture of high vacuum grease (Dow Corning Corp., Midland, Mich.) and white petrolatum (E. Fougera & Co., Melville, N.Y.). Rectal and mesenteric temperatures were continuously monitored using an electrothermometer. The exposed bowel wall was covered with Saran Wrap (Dow Chemical Co., Indiana), and the mesenteric tissue within the gasket was suffused with warmed bicarbonate-buffered saline (BBS; pH 7.4) that was bubbled with a mixture of 5% O2; 5% CO2; 90% N2.
An inverted microscope (Nikon Optiphoto, Japan) with a ×40 objective lens (Nikon Optiphoto, Japan) and a ×10 eyepiece was used to observe the mesenteric microcirculation. The mesentery was transilluminated with a 12 V-100 W direct current-stabilized light source. A video camera (Hitachi, VK-C150, Japan) mounted on the microscope projected the image onto a color monitor (Sony, PVM-2030, Japan), and the images were recorded using a video cassette recorder (Panasonic, NV8950, Japan). A video time-date generator (Panasonic, WJ810, Japan) projected the time, date, and stopwatch function onto the monitor.
Single unbranched venules with diameters ranging between 25 μm and 35 μm and a length>150 μm were selected for study. Venular diameter (Dv) was measured either on- or off-line using a video image-shearing monitor (IPM, La Mesa, Calif.). The number of adherent leukocytes was determined off-line during playback of videotaped images. A leukocyte was considered to be adherent to venular endothelium if it remained stationary for a period equal to or greater than 30 seconds. Adherent cells were expressed as the number per 100 μm length of venule. The number of emigrated leukocytes was also determined off-line during playback of videotaped images. Ary interstitial leukocytes present in the mesentery at the onset of the experiment were subtracted from the total number of leukocytes that accumulated during the course of the experiment. Leukocyte emigration was expressed as the number per microscopic field (1.7×10^-2 mm^2) or 150 μm length of venule. Rolling leukocytes were defined as those white blood cells that moved at a velocity less than that of erythrocytes in the same stream. The flux of rolling leukocytes was determined as the number of rolling leukocytes which crossed a fixed point on the venule over a given period of time. Leukocyte rolling velocity was determined from the time required for a leukocyte to roll along a given distance of the venule.

Setting [3] is: Table 2, mean of three identical experiments.

Like-named read-outs stand apart in the source and are kept apart here.

Regarding `CC(=O)N[C@H]1[C@H](O[C@H]2[C@@H](O)[C@@H](CO)O[C@@H](O[C@H]3[C@H](O)[C@@H](O)C(O)O[C@@H]3CO)[C@@H]2O)O[C@H](CO)[C@@H](O)[C@@H]1O[C@@H]1O[C@H](CO)[C@H](O)[C@H](O)[C@H]1O[C@@H]1O[C@@H](C)[C@@H](O)[C@@H](O)[C@@H]1O` (stereo partly drawn) [LNF I, reference compound], the “AMOUNT REQUIRED FOR 50% INHIBITION” value at P-Selectin (Table 6) was “No Inhibition”.

With `CC(=O)N[C@H]1[C@H](O[C@H]2[C@@H](O)[C@@H](CO)O[C@@H](O[C@H]3[C@H](O)[C@@H](O)C(O)O[C@@H]3CO)[C@@H]2O)O[C@H](CO)[C@@H](O[C@@H]2O[C@H](CO)[C@H](O)[C@H](O)[C@H]2O)[C@@H]1O[C@@H]1O[C@@H](C)[C@@H](O)[C@@H](O)[C@@H]1O` (stereo partly drawn) [LNF III (Le^x), reference compound], the IC50 at P-Selectin (Table 6) was 41 µM.

Regarding `CC(=O)N[C@H]1C(O)O[C@H](CO)[C@@H](O[C@@H]2O[C@H](CO)[C@H](O)[C@H](O)[C@H]2O)[C@@H]1O[C@@H]1O[C@@H](C)[C@@H](O)[C@@H](O)[C@@H]1O` (stereo partly drawn) [Le^x, reference compound], on P-Selectin (setting [3]), the IC50 was 43 µM.

As for `CC(=O)N[C@H]1[C@H]([C@H](O)[C@H](O)CO)O[C@@](O[C@H]2[C@@H](O)[C@@H](CO)O[C@@H](O[C@H]3[C@H](O)[C@@H](NC(C)=O)C(O)O[C@@H]3CO)[C@@H]2O)(C(=O)O)C[C@@H]1O` (stereo partly drawn) [SLN-OH, sialyl-N-acetyllactosamine, reference compound], the “effect on CVF-induced permeability, hemorrhage, MPO / lung injury” value in test [1] was “unaltered”.

As for `CC(=O)N[C@H]1[C@H](O[C@@H]2[C@@H](O)[C@H](O)O[C@H](CO)[C@@H]2O)O[C@H](CO)[C@@H](O[C@@H]2O[C@H](CO)[C@H](O)[C@H](O[C@]3(C(=O)O)C[C@H](O)[C@@H](NC(C)=O)[C@H]([C@H](O)[C@H](O)CO)O3)[C@H]2O)[C@@H]1O[C@@H]1O[C@@H](C)[C@@H](O)[C@@H](O)[C@@H]1O` [SLe^x (penta), NeuAcα2,3Galβ1,4-(Fucα1,3)GlcNacβ1,3Galβ], at P-Selectin (setting [3]), the IC50 was 2.2 µM.

In test [2] (histamine 10^-5 M), `NCCc1c[nH]cn1` [histamine] gave an Erythrocyte velocity of 1.8 ± 0.4 mm/sec, a Leukocyte adherence of 7.2 ± 1.1 per 100 μm, a Leukocyte emigration of 2.5 ± 0.9 per field and a Venular diameter of 30 ± 1 μm. In addition, in test [2] (histamine 10^-5 M), the Wall shear rate came to 303 ± 64 s⁻¹; the “number of rolling leukocytes, fold increase” value is 10 -fold; the “recruitment of rolling leukocytes, fold increase” value is 5 -fold; the “reduction of leukocyte rolling velocity” value is given as 50%. In test [2] (histamine 10^-6 M), this compound came in with an Erythrocyte velocity of 2.4 ± 0.2 mm/sec, a Leukocyte adherence of 4.8 ± 0.7 per 100 μm, a Leukocyte emigration of 2.0 ± 0.7 per field and a Venular diameter of 30 ± 1 μm. Moreover, the Wall shear rate in test [2] (histamine 10^-6 M) is 401 ± 91 s⁻¹. Besides, in test [2] (histamine 10^-6 M and 10^-5 M), the “effect on number of adherent leukocytes” value is given as “Significant increases in the number of adherent leukocytes”. In test [2] (histamine 10^-7 M), this compound had an Erythrocyte velocity of 2.8 ± 0.2 mm/sec, a Leukocyte adherence of 2.8 ± 0.7 per 100 μm, a Leukocyte emigration of 1.5 ± 0.7 per field and a Venular diameter of 30 ± 1 μm. The compound further had a Wall shear rate in test [2] (histamine 10^-7 M) of 476 ± 38 s⁻¹.
